The values below come from patent publication US8299021B2, “Macrocyclic inhibitors of hepatitis C virus replication” (InterMune, Inc., priority 2005, dated 2012).

The first assay deals with T1, NS3-NS4 protease (full-length NS3/NS4A-2) (Hepatitis C virus genotype 1a, UniProt P27958).
T1 construct: Recombinant E. coli or Baculovirus full-length NS3 was diluted to 3.33 μM with assay buffer; made in house; host or cells: E. coli or baculovirus (insect cells)
T1 sequence (P27958 1027-1657): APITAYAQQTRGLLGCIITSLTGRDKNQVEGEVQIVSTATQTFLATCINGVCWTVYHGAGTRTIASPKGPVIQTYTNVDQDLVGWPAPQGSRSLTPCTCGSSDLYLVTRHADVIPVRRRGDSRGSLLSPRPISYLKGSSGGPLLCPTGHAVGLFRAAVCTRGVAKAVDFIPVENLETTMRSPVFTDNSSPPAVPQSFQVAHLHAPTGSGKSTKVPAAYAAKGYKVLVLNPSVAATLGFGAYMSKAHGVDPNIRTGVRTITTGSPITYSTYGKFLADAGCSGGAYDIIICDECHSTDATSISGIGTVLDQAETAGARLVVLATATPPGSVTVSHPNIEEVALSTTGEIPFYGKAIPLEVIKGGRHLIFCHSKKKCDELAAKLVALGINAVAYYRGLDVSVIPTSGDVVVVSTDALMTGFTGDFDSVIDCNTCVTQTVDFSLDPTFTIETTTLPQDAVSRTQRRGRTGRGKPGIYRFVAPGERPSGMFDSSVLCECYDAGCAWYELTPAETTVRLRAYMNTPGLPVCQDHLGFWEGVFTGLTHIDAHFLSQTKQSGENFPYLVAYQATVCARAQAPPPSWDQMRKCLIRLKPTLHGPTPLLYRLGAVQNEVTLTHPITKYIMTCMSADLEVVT
Description: NS3-NS4 protease assay / NS3 inhibition assay (RETS1 substrate, fluorescence kinetic read). The note with it: Table 22; read-out: NS3-NS4 IC50. In kind it is biochemical. The protocol:
NS3 complex formation with NS4A-2.
The appropriate amount of NS4A-2 to 8.3 mM in assay buffer was added to equal the volume of NS3 in step 2.1.1 (conversion factor—3.8 mg/272 μL assay buffer). The material was transferred to an eppendorf tube and place in water bath in 4° C. refrigerator.
After equilibration to 4° C., equal volumes of NS3 and NS4A-2 solutions were combined in an eppendorf tube, mix gently with a manual pipettor, and incubate mixture for 15 minutes in the 4° C. water bath.
After 15 minutes at 4° C., the NS3/NS4A-2 eppendorf tube was removed and place it in a room temperature water bath for 10 minutes. NS3/NS4A-2 was alliquoted at appropriate volumes and store at −80° C. (E. coli NS3 run at 2 nM in assay, aliquot at 25 μL. BV NS3 run at 3 nM in assay, aliquot at 30 μL).
Sample compounds were dissolved to 10 mM in DMSO then diluted to 2.5 mM (1:4) in DMSO.
The E. coli. […] Using the manual multichannel pipettor, careful not to introduce bubbles into the plate, add 50 μL assay buffer to wells A01-H01 of a black Costar 96-well polypropylene storage plate.
Using the manual multichannel pipettor, careful not to introduce bubbles into the plate, add 50 μL of diluted NS3/NS4A-2 from step 2.2.6 to wells A02-H12 of plate in step 2.2.7. Using the manual multichannel pipettor, careful not to introduce bubbles into the plate, transfer 25 μL of the wells in drug dilution plate in step 2.2.5 to corresponding wells in assay plate in step 2.2.8. Change tips on multichannel pipettor for each row of compounds transferred. Using the manual multichannel pipettor, careful not to introduce bubbles into the plate, mix the wells from the assay plate in step 2.2.9 by aspirating and dispensing 35 μL of the 75 μL in each well five times. Change tips on multichannel pipettor for each row of wells mixed. Cover plate with a polystyrene plate lid and pre-incubate the plate from step 2.2.10 containing NS3 protease and sample compounds 10 minutes at room temperature. While plate from step 2.2.11 is pre-incubating, dilute RETS1 substrate in a 15 mL polypropylene centrifuge tube.
After the plate in step is done pre-incubating, and using the manual multichannel, add 25 μL of substrate to all wells on the plate. Quickly mix the plate as in step 2.2.10, mixing 65 μL of the 100 μL in the wells.
Read the plate in kinetic mode on the Molecular Devices SpectraMax
IC50s are determined using a four parameter curve fit equation, and converted to Ki's using the following Km's:
where Ki=IC50/(1+[S]/Km))
By IC50 is commonly meant the midpoint of a concentration-inhibition curve. Regarding `C[C@H](NC(=O)[C@@]12C[C@H]1/C=C\CCCCC[C@H](NC(=O)OC(C)(C)C)C(=O)N1CCC[C@H]1C(=O)N2)c1ccccc1` [Compound 2301], the IC50 is below 10000 nM.

As to `COc1cccc(NC(=O)[C@@]23C[C@H]2/C=C\CCCCC[C@H](NC(=O)OC(C)(C)C)C(=O)N2CCC[C@H]2C(=O)N3)c1` [Compound 2312], the IC50 is below 1000 nM.

`CC(C)(C)OC(=O)N[C@H]1CCCCC/C=C\[C@@H]2C[C@@]2(C(=O)NC#N)NC(=O)[C@@H]2CCCN2C1=O` [Compound 2306]: the half-inhibitory concentration (IC50) is below 1000 nM.

In the case of `CC(C)(C)OC(=O)N[C@H]1CCCCC/C=C\[C@@H]2C[C@@]2(C(=O)Nc2ccc(F)cc2)NC(=O)[C@@H]2CCCN2C1=O` [Compound 2304], the IC50 is below 1000 nM.

Staying with this assay, now noted: read-out: NS3-NS4 IC50.
Take `CC(C)N(C(C)C)S(=O)(=O)NC(=O)[C@@]12C[C@H]1/C=C\CCCCC[C@H](NC(=O)OC(C)(C)C)C(=O)N1CCC[C@H]1C(=O)N2` [Compound 2209]: the IC50 was below 1000 nM.

In the case of `CC(C)(C)OC(=O)N[C@H]1CCCCC/C=C\[C@@H]2C[C@@]2(C(=O)NS(=O)(=O)N2CCCCC2)NC(=O)[C@@H]2CCCN2C1=O` [Compound 2219], the concentration for half-maximal inhibition (IC50) was below 10000 nM.

As to `CC(C)(C)OC(=O)N[C@H]1CCCCC/C=C\[C@@H]2C[C@@]2(C(=O)NS(=O)(=O)Nc2ccc(Cl)c(Cl)c2)NC(=O)[C@@H]2CCCN2C1=O` [Compound 2234], the IC50 was below 1000 nM.

Consider `CC(C)CNS(=O)(=O)NC(=O)[C@@]12C[C@H]1/C=C\CCCCC[C@H](NC(=O)OC(C)(C)C)C(=O)N1CCC[C@H]1C(=O)N2` [Compound 2218], for which the IC50 is below 100 nM.

On to `CC(C)(C)OC(=O)NC1CCCCCC=CC2CC2(C(=O)NS(=O)(=O)c2ccccc2Cl)NC(=O)C2CCCN2C1=O` (centres unmarked) [Compound 2109], for which the IC50 was below 10000 nM.

`CC(C)OC(=O)N[C@H]1CCCCC/C=C\[C@@H]2C[C@@]2(C(=O)NS(=O)(=O)Nc2ccc(Cl)cc2)NC(=O)[C@@H]2CCCN2C1=O` [Compound 418]: the IC50 was above 10000 nM.

Turning to `COC(=O)C1CCCCN1S(=O)(=O)NC(=O)[C@@]12C[C@H]1/C=C\CCCCC[C@H](NC(=O)OC(C)(C)C)C(=O)N1CCC[C@H]1C(=O)N2` (some centres unmarked) [Compound 2221], the half-maximal inhibitory concentration (IC50) was below 1000 nM.

For `CCNS(=O)(=O)NC(=O)[C@@]12C[C@H]1/C=C\CCCCC[C@H](NC(=O)OC(C)(C)C)C(=O)N1CCC[C@H]1C(=O)N2` [Compound 2216], the IC50 was below 10000 nM.

A further assay deals with HCV sub-genomic replicon GS4.3 (HuH-7 hepatoma cells). The experiment in a line: Quantitation by ELISA of neomycin phosphotransferase II (NPTII) in the HCV sub-genomic replicon, GS4.3. In kind it is cell-based. As to conditions: Hepatitis C virus, Huh-7, 72 h, read-out: Replicon EC50. An excerpt:
Quantitation by ELISA of the Selectable Marker Protein, Neomycin Phosphotransferase II (NPTII) in the HCV Sub-Genomic Replicon, GS4.3
The HCV sub-genomic replicon (1377/NS3-3′, accession No. AJ242652), stably maintained in HuH-7 hepatoma cells, was created by Lohmann et al. Science 285: 110-113 (1999). The replicon-containing cell culture, designated GS4.3, was obtained from Dr. Christoph Seeger of the Institute for Cancer Research, Fox Chase Cancer Center, Philadelphia, Pa.
GS4.3 cells were maintained at 37° C., 5% CO2, in DMEM (Gibco 11965-092) supplemented with L-glutamine 200 mM (100×) (Gibco25030-081), non-essential amino acids (NEAA)(Biowhittaker 13-114E), heat-inactivated (HI) Fetal Bovine Serum(FBS)(Hyclone SH3007.03) and […] geneticin (G418)(Gibco 10131-035). Cells were sub-divided 1:3 or 4 every 2-3 days.
24 h prior to the assay, GS4.3 cells were collected, counted, and plated in 96-well plates (Costar 3585) at 7500 cells/well in 100 μl standard maintenance medium (above) and incubated in the conditions above. To initiate the assay, culture medium was removed, cells were washed once with PBS (Gibco 10010-023) and 90 μl Assay Medium (DMEM, L-glutamine, NEAA, 10% HI FBS, no G418) was added. Inhibitors were made as a 10× stock in Assay Medium, (3-fold dilutions from 10 μM to […] final concentration, final DMSO concentration 1%), 10 μl were added to duplicate wells, plates were rocked to mix, and incubated as above for 72 h.
An NPTII Elisa kit was obtained from AGDIA, Inc. (Compound direct ELISA test system for Neomycin Phosphotransferase II, PSP 73000/4800). Manufacturer's instructions were followed, with some modifications. 10×PEB-1 lysis buffer was made up to include 500 μM PMSF (Sigma P7626, 50 mM stock in isopropanol). After 72 h incubation, cells were washed once with PBS and 150 μlPEB-1 with PMSF was added per well. Plates were agitated vigorously for 15 minutes, room temperature, then frozen at −70° C. Plates were thawed, lysates were mixed thoroughly, and 100 μl were applied to an NPTII Elisa plate. A standard curve was made. Lysate from DMSO-treated control cells was pooled, serially diluted with PEB-1 with PMSF, and applied to duplicate wells of the ELISA plate, in a range of initial lysate amount of 150 ul-2.5 ul. In addition, 100 μl buffer alone was applied in duplicate as a blank. Plates were sealed and gently agitated at room temperature for 2 h. Following capture incubation, the plates were washed 5×300 μlwith PBS-T (0.5% Tween-20, PBS-T was supplied in the ELISA kit). For detection, a 1× dilution of enzyme conjugate diluent MRS-2 (5×) was made in PBS-T, into which 1:100 dilutions of enzyme conjugates A and B were added, as per instructions. Plates were resealed, and incubated with agitation, covered, room temperature, for 2 h. The washing was then repeated and 100 μlof room temperature TMB substrate was added. After approximately 30 minutes incubation (room temperature, agitation, covered), the reaction was stopped with 50 μl 3M sulfuric acid. Plates were read at 450 nm on a Molecular Devices Versamax plate reader.
Inhibitor effect was expressed as a percentage of DMSO-treated control signal, and inhibition curves were calculated using a 4-parameter equation: y=A+4B-A)/(1+((C/x)^13))), where C is half-maximal activity or EC50.
(An ELISA detects its analyte on a solid surface through an enzyme-linked reagent.)
In general, EC50 refers to the concentration that produces a half-maximal response. With `CN(C)c1ccc(S(=O)(=O)NC(=O)[C@@]23C[C@H]2/C=C\CCCCC[C@H](NC(=O)OC2CCCC2)C(=O)N2C[C@H](OC(=O)N4CCc5ccccc5C4)C[C@H]2C(=O)N3)cc1` [Compound 183], the half-maximal effective concentration (EC50) was below 100 nM.

On to `COc1ccc(S(=O)(=O)NC(=O)[C@@]23C[C@H]2/C=C\CCCCC[C@H](NC(=O)OC2CCCC2)C(=O)N2C[C@H](OC(=O)N4CCc5ccccc5C4)C[C@H]2C(=O)N3)cc1` [Compound 120], for which the concentration giving a half-maximal response (EC50) was below 100 nM.

Turning to `CS(=O)(=O)NC(=O)[C@@]12C[C@H]1/C=C\CCCCC[C@H](NC(=O)OC1CCCC1)C(=O)N1C[C@H](OC(=O)N3CCc4ccccc4C3)C[C@H]1C(=O)N2` [Compound 119], the EC50 was below 1000 nM.

On to `CC(C)S(=O)(=O)NC(=O)[C@@]12C[C@H]1/C=C\CCCCC[C@H](NC(=O)OC1CCCC1)C(=O)N1C[C@H](OC(=O)N3CCc4ccccc4C3)C[C@H]1C(=O)N2` [Compound 118], for which the EC50 was below 100 nM.

`N[C@H]1CCCCC/C=C\[C@@H]2C[C@@]2(C(=O)NS(=O)(=O)Nc2ccc(Cl)cc2)NC(=O)[C@@H]2C[C@@H](OC(=O)N3Cc4ccccc4C3)CN2C1=O` [Compound 203]: the EC50 was above 10000 nM.

Still in this assay, the particulars now being: Hepatitis C virus, Huh-7; GS4.3 cells, 72 h; read-out: Replicon EC50.
In the case of `O=C1N[C@]2(C(=O)NS(=O)(=O)C3CC3)C[C@H]2/C=C\CCCCC[C@H](NC(=O)N2CCCC2)C(=O)N2CC(OC(=O)N3Cc4cccc(F)c4C3)C[C@@H]12` (some centres unmarked) [Compound 243], the EC50 was below 100 nM.

With `O=C1N[C@]2(C(=O)NS(=O)(=O)C3CC3)C[C@H]2/C=C\CCCCC[C@H](NC(=S)NC2CCCC2)C(=O)N2CC(OC(=O)N3Cc4cccc(F)c4C3)C[C@@H]12` (some centres unmarked) [Compound 240], the EC50 is below 1000 nM.

On to `O=C(N[C@H]1CCCCC/C=C\[C@@H]2C[C@@]2(C(=O)NS(=O)(=O)C2CC2)NC(=O)C2C[C@@H](OC(=O)N3Cc4ccncc4C3)CN2C1=O)OC1CCCC1` (some centres unmarked) [Compound 155], for which the EC50 is below 1000 nM.

Turning to `O=C(N[C@@H]1CCCCC/C=C\[C@@H]2C[C@]2(C(=O)NS(=O)(=O)N2CCC(F)(F)C2)NC(=O)C2C[C@H](OC(=O)N3Cc4ccccc4C3)CN2C1=O)OC1CCCC1` (some centres unmarked) [Compound 227], the EC50 is below 100 nM.

Regarding `CC(C)(C)OC(=O)N[C@H]1CCC(O)CC/C=C\[C@@H]2C[C@@]2(C(=O)NS(=O)(=O)C2CC2)NC(=O)[C@@H]2C[C@@H](OC(=O)N3Cc4cccc(F)c4C3)CN2C1=O` (some centres unmarked) [Compound 1018], the EC50 is below 1000 nM.

For `CC(C)(C)OC(=O)N[C@H]1CCCCC/C=C\[C@@H]2C[C@@]2(C(=O)NS(=O)(=O)C2CC2)NC(=O)C2C[C@@H](OC(=O)N3Cc4c(Cl)ccc(Cl)c4C3)CN2C1=O` (some centres unmarked) [Compound 145], the EC50 was below 100 nM.

Regarding `C[C@H](NC(=O)O[C@@H]1CC2C(=O)N[C@]3(C(=O)NS(=O)(=O)C4CC4)C[C@H]3/C=C\CCCCC[C@H](NC(=O)OC(C)(C)C)C(=O)N2C1)c1ccc(F)cn1` (some centres unmarked) [Compound 149], the concentration for a half-maximal effect (EC50) was above 10000 nM.

For the compound `O=C(N[C@H]1CCCCC/C=C\[C@@H]2C[C@@]2(C(=O)NC(=O)C2CC2)NC(=O)C2C[C@@H](OC(=O)N3CCc4ccccc4C3)CN2C1=O)OC1CCCC1` (some centres unmarked) [Compound 706], the EC50 was below 100 nM.

For the compound `CN(Cc1ccccc1)C(=O)OC1C[C@H]2C(=O)N[C@]3(C(=O)NS(=O)(=O)C4CC4)C[C@H]3/C=C\CCCCC[C@H](NC(=O)OC(C)(C)C)C(=O)N2C1` (some centres unmarked) [Compound 245], the EC50 was below 1000 nM.
